ChEMBL document CHEMBL5032536, “Synthesis and Cytotoxic Activity of Lepidilines A-D: Comparison with Some 4,5-Diphenyl Analogues and Related Imidazole-2-thiones” (J Nat Prod, 2021)

Key:
[1] = Selectivity ratio of IC50 for cytotoxicity against human MCF7 cells to IC50 for cytotoxicity against human HL-60 cells; format: toxicity, cell-based; settings: MCF7 cells versus HL-60 cells, read-out: Ratio IC50
[2] = Selectivity ratio of IC50 for cytotoxicity against HUVEC cells to IC50 for cytotoxicity against human HL-60 cells; format: toxicity, cell-based; settings: HUVEC cells versus HL-60 cells, read-out: Ratio IC50

COc1cccc(Cn2c(C)c(C)[n+](Cc3ccccc3)c2C)c1
selectivity ratio [1]: > 100
selectivity ratio [2]: > 100
